Tested on: Mus musculus
Assay: Toxicity in Swiss albino mouse bearing mouse EAC cells assessed as hemoglobin level at 50 to 250 mg/kg/day, po after 14 days postimplantation
Type: organism-based, Ehrlich
Set-up: route oral
Conditions: in vivo, 336 h

In order of falling Activity:
1. Nc1nn2c(c1/N=N/c1ccc(/N=N/c3ccccc3)cc1)NC(=O)CC2  10.9 g/dL
2. Nc1n[nH]c(/N=N/c2c(O)ccc3ccccc23)c1/N=N/c1ccc(/N=N/c2ccccc2)cc1  10.5 g/dL
3. O=c1[nH]cc(F)c(=O)[nH]1 [FLUOROURACIL]  10 g/dL

Tested on: Mus musculus
Assay: Toxicity in Swiss albino mouse bearing mouse EAC cells assessed as mean survival time at 50 to 250 mg/kg/day, po
Type: organism-based, Ehrlich
Set-up: route oral
Conditions: in vivo

In order of rising MST:
1. O=c1[nH]cc(F)c(=O)[nH]1 [FLUOROURACIL]  16.7 days
2. Nc1nn2c(c1/N=N/c1ccc(/N=N/c3ccccc3)cc1)NC(=O)CC2  17.1 days
3. Nc1n[nH]c(/N=N/c2c(O)ccc3ccccc23)c1/N=N/c1ccc(/N=N/c2ccccc2)cc1  17.8 days

Tested on: Mus musculus
Assay: Toxicity in Swiss albino mouse bearing mouse EAC cells assessed as WBC count at 50 to 250 mg/kg/day, po after 14 days postimplantation
Type: organism-based, Ehrlich
Set-up: route oral
Conditions: in vivo, 336 h

In order of falling Activity:
1. O=c1[nH]cc(F)c(=O)[nH]1 [FLUOROURACIL]  13.8
2. Nc1nn2c(c1/N=N/c1ccc(/N=N/c3ccccc3)cc1)NC(=O)CC2  12.8
3. Nc1n[nH]c(/N=N/c2c(O)ccc3ccccc23)c1/N=N/c1ccc(/N=N/c2ccccc2)cc1  11.5

Tested on: Mus musculus
Assay: Toxicity in Swiss albino mouse bearing mouse EAC cells assessed as hematocrit level at 50 to 250 mg/kg/day, po after 14 days postimplantation
Type: organism-based, Ehrlich
Set-up: route oral
Conditions: in vivo, 336 h

In order of falling Activity:
1. Nc1n[nH]c(/N=N/c2c(O)ccc3ccccc23)c1/N=N/c1ccc(/N=N/c2ccccc2)cc1  43.7%
2. Nc1nn2c(c1/N=N/c1ccc(/N=N/c3ccccc3)cc1)NC(=O)CC2  43%
3. O=c1[nH]cc(F)c(=O)[nH]1 [FLUOROURACIL]  42.3%

Tested on: Mus musculus
Assay: Toxicity in Swiss albino mouse bearing mouse EAC cells assessed as increase in body weight at 50 to 250 mg/kg/day, po
Type: organism-based, Ehrlich
Set-up: route oral
Conditions: in vivo

For `Nc1nn2c(c1/N=N/c1ccc(/N=N/c3ccccc3)cc1)NC(=O)CC2`, the Activity was “Toxic”.
For `Nc1n[nH]c(/N=N/c2c(O)ccc3ccccc23)c1/N=N/c1ccc(/N=N/c2ccccc2)cc1`, the Activity was “Toxic”.
`O=c1[nH]cc(F)c(=O)[nH]1` [FLUOROURACIL] was tested, and the Activity was “Toxic”.

Source: ChEMBL document CHEMBL1155253, “Synthesis, antitumor evaluation, molecular modeling and quantitative structure-activity relationship (QSAR) of some novel arylazopyrazolodiazine and triazine analogs” (Bioorg Med Chem, 2009)
